These results are taken from patent publication US10562912B2 (C&C Research Laboratories, priority 2013, dated 2020).

What all share (assay type): cell-based
The subject of one assay is LNCaP. Nature of the assay: Cell growth inhibition assay, prostate cancer cell line LNCaP (medium with 10 ng/mL IL-6). Conditions: Homo sapiens, medium supplemented with 10 ng/mL of IL-6, 10,000 cells/well. The method, then:
(§1) The inhibitory effects of the compounds of the present invention against the growth of cancer cells were evaluated as shown below. The cancer cell lines including stomach cancer cell line (AGS), breast cancer cell lines (MDA-MB-231, MDA-MB-468, and BT-549), prostate cancer cell lines (LNCaP and DU-145), colon cancer cell line (HCT116), ovarian cancer cell line (SW626), liver cancer cell line (Hep3B), kidney cancer cell line (ACHN), lung cancer cell line (NCI-H23) and blood cancer cell lines (HEL92.1.7 and U266) were cultured under the protocol provided by each supplier. A medium supplemented with 10 ng/mL of IL-6 was used for LNCaP, a prostate cancer cell line, when treated with a drug. Each type of cells to be used in experiments were sub-cultured in a 96-well plate by counting the exact number of cells using Tali™ Image-based Cytometer (Life Technologies). In a 96-well plate, AGS, HCT116, and DU-145 were employed with 3,000 cells/well; NCI-H23, SW626, Hep3B, ACHN, BT-549, MDA-MB-231, HEL92.1.7, and U266 were employed with 5,000 cells/well; and LNCaP and MDA-MB-468 were employed with 10,000 cells/well. The cells were treated with the compounds listed in Examples which were diluted in various concentrations. Upon completion of the compounds treatment, AGS, HCT116, SW626, DU145, NCI-H23, Hep3B, ACHN, BT-549, LNCaP, HEL92.1.7, and U266 cells were cultured at 37° C. under 5% CO2 for from 72 to 96 hours, and MDA-MB-231 and MDA-MB-468 cells were cultured at 37° C. in air for from 72 to 96 hours. Subsequently, the cells were observed under microscope and drug precipitation and particular findings were investigated and recorded. And then, the 96-well plate was placed at room temperature for 30 minutes, added with 20 μL/well of CellTiter-Glo solution (Cat No. G7573, Promega) and shaken for 10 minutes, followed by being subjected to the measurement using PHERAstar™ microplate reader (BMG LABTECH) according to the supplier's general luminometer protocol. Wells where only culture liquid added without cell plating were used as a negative control, whereas wells where culture liquid containing 0.1% DMSO instead of the compounds listed in Examples were used as a positive control.

A further assay deals with DU-145. Nature of the assay: Cell growth inhibition assay, prostate cancer cell line DU-145. Particulars: Homo sapiens, DU-145 prostate cancer cell line. How it is done:
as §1

In a further assay the target is T1, STAT3 (Homo sapiens, UniProt P40763).
T1 construct: plasmid pSTAT3-TA-luc), which contains a stably operating STAT3 promoter; endogenous in cells
T1 sequence (P40763 whole entry): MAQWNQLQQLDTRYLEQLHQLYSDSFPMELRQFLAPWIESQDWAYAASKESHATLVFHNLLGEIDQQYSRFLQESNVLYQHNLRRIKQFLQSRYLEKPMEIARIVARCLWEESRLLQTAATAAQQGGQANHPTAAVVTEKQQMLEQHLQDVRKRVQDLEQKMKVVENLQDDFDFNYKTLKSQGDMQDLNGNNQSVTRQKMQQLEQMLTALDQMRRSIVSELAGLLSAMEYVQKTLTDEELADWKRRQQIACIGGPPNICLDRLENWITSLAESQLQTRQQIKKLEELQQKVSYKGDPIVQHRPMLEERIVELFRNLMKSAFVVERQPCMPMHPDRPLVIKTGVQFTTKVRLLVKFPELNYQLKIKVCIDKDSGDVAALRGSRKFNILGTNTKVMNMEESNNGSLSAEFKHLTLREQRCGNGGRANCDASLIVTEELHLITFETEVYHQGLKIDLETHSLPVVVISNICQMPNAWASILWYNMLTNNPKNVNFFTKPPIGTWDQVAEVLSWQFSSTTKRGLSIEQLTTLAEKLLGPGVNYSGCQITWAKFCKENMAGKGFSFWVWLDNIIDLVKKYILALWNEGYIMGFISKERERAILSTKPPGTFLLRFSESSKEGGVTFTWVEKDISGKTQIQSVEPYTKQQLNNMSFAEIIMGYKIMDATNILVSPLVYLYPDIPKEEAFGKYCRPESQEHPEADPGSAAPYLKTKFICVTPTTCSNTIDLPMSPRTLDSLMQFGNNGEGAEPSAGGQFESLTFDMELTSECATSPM
In words: STAT3 reporter gene assay (luciferase), LNCaP stable cell line (pSTAT3-TA-luc), IL-6 stimulation. The method, then:
1-1) Experiment on the Inhibition of STAT3 Activity
A human prostate cancer cell line (LNCaP stable cell line; plasmid pSTAT3-TA-luc), which contains a stably operating STAT3 promoter, was cultured in RPMI1640 medium (Cat No. 11875, Life Technologies) containing 10% fetal bovine serum (FBS) (Cat No. SH30396, Thermo Scientific) and 150 μg/mL G-418 solution (Cat No. 04 727 894 001, Roche). The reporter gene assay using LNCaP stable cell line was performed in RPMI1640 medium containing 3% DCC-FBS without G-418 solution. LNCaP stable cells were plated in two (2) white 96-well plates with 30,000 cells/50 μL in each well. The cells were cultured at 37° C., under 5% CO2 for 24 hours, and then treated with the compounds listed in Examples which were diluted in various concentrations. Subsequently, IL-6 was added to each well with a final concentration of 10 ng/mL. Upon completion of the treatment with the compounds and IL-6, the cells were cultured at 37° C., under 5% CO2 for from 24 to 48 hours. The plates were observed under microscope and drug precipitation and particular findings were investigated and recorded.
The luciferase assay and the cell viability assay were performed respectively with one of the two plates. For the luciferase assay, the liquid media in the 96-well plate was removed, and then, 20 μL of passive cell lysis buffer was added to each well. After shaking the plate for 30 minutes, luciferase activities of each well were measured in a PHERAstar™ microplate reader (BMG LABTECH) using a luciferase assay system (Cat No. E1501, Promega). For the cell viability assay, the 96-well plate was placed at room temperature for 30 minutes, added with 20 μL/well of CellTiter-Glo solution (Cat No. G7573, Promega), and shaken for 10 minutes in order to measure cytotoxicity caused by the compounds listed in Examples with a PHERAstar™ microplate reader (BMG LABTECH). Wells without 0.1% DMSO and stimulation were used as a negative control and wells with 0.1% DMSO and stimulation were used as a positive control.
Background: In a reporter assay the amount or activity of a reporter protein is the signal.

The structures appear in SMILES notation.

For orientation: IC50 means the concentration needed to halve the response being measured. The low end stands for greater potency, the high end for weaker potency. Take `CCOc1cc(OC(F)(F)F)cc(C(C)(C)c2cc(Br)cc(NC(=O)c3cc4nc(NS(C)(=O)=O)ccc4s3)c2)c1` [Example 60, N-(3-bromo-5-(2-(3-ethoxy-5-(trifluoromethoxy)phenyl)propan-2-yl)phenyl)-5-(methylsulfonamido)thieno[3,2-b]pyridine-2-carboxamide]: the IC50 was 0.37 µM in the assay with LNCaP, 0.17 µM with DU-145 and 0.063 µM against STAT3.
The like results for `CC(C)(c1cc(Cl)cc(NC(=O)c2cc3cc(NS(C)(=O)=O)ccc3s2)c1)c1cc(OC(F)(F)F)ccc1F` [Example 62, N-(3-chloro-5-(2-(2-fluoro-5-(trifluoromethoxy)phenyl)propan-2-yl)phenyl)-5-(methylsulfonamido)benzo[b]thiophene-2-carboxamide] were, in that order, 0.075 µM, 0.016 µM and 0.011 µM.
For the compound `COc1cc(OC(F)(F)F)cc(C(C)(C)c2cc(F)cc(NC(=O)c3cc4cc(NS(C)(=O)=O)ccc4s3)c2)c1` [Example 63, N-(3-fluoro-5-(2-(3-methoxy-5-(trifluoromethoxy)phenyl)propan-2-yl)phenyl)-5-(methylsulfonamido)benzo[b]thiophene-2-carboxamide], the IC50 stood at 0.037 µM in the assay with LNCaP, 0.01 µM in the assay on DU-145 and 0.034 µM at STAT3.
As to `CC(C)(c1cccc(F)c1)c1cc(Cl)cc(NC(=O)c2cc3cc(NS(C)(=O)=O)ccc3s2)c1` [Example 65, N-(3-chloro-5-(2-(3-fluorophenyl)propan-2-yl)phenyl)-5-(methylsulfonamido)benzo[b]thiophene-2-carboxamide], the IC50 in the assay on DU-145 came to 0.005 µM; at STAT3 it was 0.064 µM.
For the compound `CC(C)Oc1cc(OC(F)(F)F)cc(C(C)(C)c2cc(Cl)cc(NC(=O)c3cn4cc(NS(C)(=O)=O)ccc4n3)c2)c1` [Example 74, N-(3-chloro-5-(2-(3-isopropoxy-5-(trifluoromethoxy)phenyl)propan-2-yl)phenyl)-6-(methylsulfonamido)imidazo[1,2-a]pyridine-2-carboxamide], the IC50 in the assay with LNCaP turned out to be 6.6 µM; in the assay on DU-145, 2.6 µM; on STAT3, 2.7 µM.
For the compound `CC(C)(c1cc(Cl)cc(NC(=O)c2cc3cc(NS(C)(=O)=O)ccc3s2)c1)c1cc(OC2COC2)cc(OC(F)(F)F)c1` [Example 76, N-(3-chloro-5-(2-(3-(oxetan-3-yloxy)-5-(trifluoromethoxy)phenyl)propan-2-yl)phenyl)-5-(methylsulfonamido)benzo[b]thiophene-2-carboxamide], the IC50 came to 0.23 µM in the assay with LNCaP, 0.34 µM in the assay on DU-145 and 3 µM against STAT3.
Consider `CC(C)Oc1cc(OC(F)(F)F)cc(C(C)(C)c2cc(Cl)cc(NC(=O)c3cc4c(s3)CCN(S(C)(=O)=O)C4)c2)c1` [Example 97, N-(3-chloro-5-(2-(3-isopropoxy-5-(trifluoromethoxy)phenyl)propan-2-yl)phenyl)-5-(methylsulfonyl)-4,5,6,7-tetrahydrothieno[3,2-c]pyridine-2-carboxamide], for which the results for the IC50 with DU-145 and on STAT3 were 0.17 µM and 2.1 µM, respectively.
The like results for `CC(C)Oc1cc(OC(F)(F)F)cc(C(C)(C)c2cc(Cl)cc(NC(=O)c3cc(NS(C)(=O)=O)cs3)c2)c1` [Example 102, N-(3-chloro-5-(2-(3-isopropoxy-5-(trifluoromethoxy)phenyl)propan-2-yl)phenyl)-4-(methylsulfonamido)thiophene-2-carboxamide] were, in that order, above 1.1 µM and 4.6 µM.
With `CC(C)Oc1cc(OC(F)(F)F)cc(C(C)(C)c2cc(Br)cc(NC(=O)c3cc4cc(OP(=O)(O)O)ccc4s3)c2)c1` [Example 192, 2-((3-bromo-5-(2-(3-isopropoxy-5-(trifluoromethoxy)phenyl)propan-2-yl)phenyl)carbamoyl)benzo[b]thiophen-5-yl dihydrogen phosphate], it took 0.75 µM to reach half-maximal inhibition against STAT3 (IC50).
For the compound `CS(=O)(=O)Nc1ccc2[nH]c(C(=O)Nc3cccc(-c4ccccc4C(F)(F)F)c3)cc2c1` [Example 259, 5-(methylsulfonamido)-N-(2′-(trifluoromethyl)-[1,1′-biphenyl]-3-yl)-1H-indole-2-carboxamide], the figures for the IC50 in the assay with LNCaP and on STAT3 were 2 µM and 1.1 µM, respectively.
As to `CS(=O)(=O)Nc1cc2cc(C(=O)Nc3cc(Cl)nc(Oc4ccc(Cl)cc4)c3)sc2cc1Cl` [Example 490, 6-chloro-N-(2-chloro-6-(4-chlorophenoxy)pyridin-4-yl)-5-(methylsulfonamido)benzo[b]thiophene-2-carboxamide], at STAT3, the IC50 came to 0.016 µM.
The same measure, in the same setting: next, `CS(=O)(=O)Nc1ccc2sc(C(=O)Nc3cc(Cl)nc(Oc4ccc(Cl)nc4)c3)cc2c1` [Example 491, N-(2-chloro-6-((6-chloropyridin-3-yl)oxy)pyridin-4-yl)-5-(methylsulfonamido)benzo[b]thiophene-2-carboxamide]: 0.13 µM; `CS(=O)(=O)Nc1cc2cc(C(=O)Nc3cc(Cl)nc(Oc4ccc(Cl)nc4)c3)sc2cc1Cl` [Example 492]: 0.008 µM.
The compound `CS(=O)(=O)Nc1ccc2sc(C(=O)Nc3cc(Cl)nc(Oc4ccc(C(F)(F)F)nc4)c3)cc2c1` [Example 493, N-(2-chloro-6-((6-(trifluoromethyl)pyridin-3-yl)oxy)pyridin-4-yl)-5-(methylsulfonamido)benzo[b]thiophene-2-carboxamide] registered an IC50 at STAT3 of 0.14 µM.
Same read-out and setting: then `CS(=O)(=O)Nc1cc2cc(C(=O)Nc3cc(Cl)nc(Oc4ccc(C(F)(F)F)nc4)c3)sc2cc1Cl` [Example 494, 6-chloro-N-(2-chloro-6-((6-(trifluoromethyl)pyridin-3-yl)oxy)pyridin-4-yl)-5-(methylsulfonamido)benzo[b]thiophene-2-carboxamide], with 0.018 µM.
The same measure, in the same setting: next, `CS(=O)(=O)Nc1ccc2sc(C(=O)Nc3cc(Cl)nc(Oc4ccc(C(F)(F)F)cc4)c3)cc2c1` [Example 495, N-(2-chloro-6-(4-(trifluoromethyl)phenoxy)pyridin-4-yl)-5-(methylsulfonamido)benzo[b]thiophene-2-carboxamide]: 0.08 µM.
The same measure, in the same setting: next, `CS(=O)(=O)Nc1cc2cc(C(=O)Nc3cc(Cl)nc(Oc4ccc(C(F)(F)F)cc4)c3)sc2cc1Cl` [Example 496, 6-chloro-N-(2-chloro-6-(4-(trifluoromethyl)phenoxy)pyridin-4-yl)-5-(methylsulfonamido)benzo[b]thiophene-2-carboxamide]: 0.009 µM; `COc1cc2sc(C(=O)Nc3cc(Cl)cc(C(C)(C)c4ccc(Cl)cc4)c3)cc2cc1NS(C)(=O)=O` [Example 497, N-(3-chloro-5-(2-(4-chlorophenyl)propan-2-yl)phenyl)-6-methoxy-5-(methylsulfonamido)benzo[b]thiophene-2-carboxamide]: 0.005 µM.
At STAT3, `COc1cc2sc(C(=O)Nc3cc(Cl)cc(Oc4ccc(Cl)cc4)c3)cc2cc1NS(C)(=O)=O` [Example 498, N-(3-chloro-5-(4-chlorophenoxy)phenyl)-6-methoxy-5-(methylsulfonamido)benzo[b]thiophene-2-carboxamide] came in with an IC50 of 0.06 µM.
